Results on 1 molecule are retold here after PMC11684029, “Discovery of VU6024578/BI02982816: An mGlu1 Positive Allosteric Modulator with Efficacy in Preclinical Antipsychotic and Cognition Models” (Journal of Medicinal Chemistry, 2024).

Like-named read-outs stand apart in the source and are kept apart here.

The target of one series is T1, AT2 (Homo sapiens, UniProt P50052).
T1 construct: Eurofins (panel run as a service)
As to the kind of experiment: Eurofins radioligand binding panel. The note with it: agonist radioligand. The source says:
(§1) Table S1. Eurofins Lead Profiling Screen Data
(§2) This is a radioligand binding panel of 80 targets including GPCRs, ion channels, transporters and nuclear hormones. Biochemical assay results are presented as the percent inhibition of specific […]
(§3) Results showing an inhibition or stimulation higher than 50% are considered to represent significant effect and are highlighted […]
(§4) Target / Protein Species % Inhibition at 10 […]

Another series has as its system BZD (central). Briefly: Eurofins radioligand binding panel. The note with it: agonist radioligand.
Source text: as §1, §2, §3, §4

For a further series, the target named is T2, CGRP (Homo sapiens, UniProt O60894+Q16602).
T2 construct: Eurofins (panel run as a service)
T2 sequence (Q16602 23-461): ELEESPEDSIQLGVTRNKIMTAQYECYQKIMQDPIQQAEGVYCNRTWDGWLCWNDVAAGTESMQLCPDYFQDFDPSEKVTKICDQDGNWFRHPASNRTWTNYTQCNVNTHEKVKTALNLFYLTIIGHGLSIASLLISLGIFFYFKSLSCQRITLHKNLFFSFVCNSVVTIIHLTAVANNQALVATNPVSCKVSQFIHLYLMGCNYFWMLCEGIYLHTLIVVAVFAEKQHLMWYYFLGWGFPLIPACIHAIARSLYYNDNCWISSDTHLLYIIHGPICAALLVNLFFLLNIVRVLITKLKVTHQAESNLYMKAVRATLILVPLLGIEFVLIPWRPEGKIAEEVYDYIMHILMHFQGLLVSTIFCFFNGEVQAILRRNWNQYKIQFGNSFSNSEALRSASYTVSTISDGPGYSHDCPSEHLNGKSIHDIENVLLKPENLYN
T2 sequence (O60894 27-148 partner): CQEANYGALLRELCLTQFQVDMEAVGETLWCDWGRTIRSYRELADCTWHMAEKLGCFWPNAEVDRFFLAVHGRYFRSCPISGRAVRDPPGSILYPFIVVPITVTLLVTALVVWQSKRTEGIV
As to the kind of experiment: Eurofins radioligand binding panel. The note with it: agonist radioligand.
Source text: as §1, §2, §3, §4

Another series concerns the target T3, Adrenergic beta 2 (Homo sapiens, UniProt P07550).
T3 construct: Eurofins
As to the kind of experiment: Eurofins radioligand binding panel. Particulars: antagonist radioligand.
Source text: as §1, §2, §3, §4

The target of a further series is T4, Adrenergic beta 1 (Homo sapiens, UniProt P08588).
T4 construct: Eurofins
T4 sequence (P08588 whole entry): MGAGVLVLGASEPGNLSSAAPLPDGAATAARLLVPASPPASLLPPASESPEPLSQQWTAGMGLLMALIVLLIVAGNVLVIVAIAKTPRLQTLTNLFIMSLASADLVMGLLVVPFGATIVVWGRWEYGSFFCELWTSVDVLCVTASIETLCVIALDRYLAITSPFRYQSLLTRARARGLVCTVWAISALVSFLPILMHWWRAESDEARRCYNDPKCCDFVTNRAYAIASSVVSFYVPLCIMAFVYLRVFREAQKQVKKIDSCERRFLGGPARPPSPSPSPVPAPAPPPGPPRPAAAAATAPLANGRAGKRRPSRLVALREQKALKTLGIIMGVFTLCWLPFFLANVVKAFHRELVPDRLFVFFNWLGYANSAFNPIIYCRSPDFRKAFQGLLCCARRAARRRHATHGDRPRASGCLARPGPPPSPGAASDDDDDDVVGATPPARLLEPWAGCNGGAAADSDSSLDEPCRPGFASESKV
Briefly: Eurofins radioligand binding panel. The note with it: agonist radioligand.
Source text: as §1, §2, §3, §4

The target in the next series is T5, Adenosine A3 (Homo sapiens, UniProt P0DMS8).
T5 construct: Eurofins
T5 sequence (P0DMS8 whole entry): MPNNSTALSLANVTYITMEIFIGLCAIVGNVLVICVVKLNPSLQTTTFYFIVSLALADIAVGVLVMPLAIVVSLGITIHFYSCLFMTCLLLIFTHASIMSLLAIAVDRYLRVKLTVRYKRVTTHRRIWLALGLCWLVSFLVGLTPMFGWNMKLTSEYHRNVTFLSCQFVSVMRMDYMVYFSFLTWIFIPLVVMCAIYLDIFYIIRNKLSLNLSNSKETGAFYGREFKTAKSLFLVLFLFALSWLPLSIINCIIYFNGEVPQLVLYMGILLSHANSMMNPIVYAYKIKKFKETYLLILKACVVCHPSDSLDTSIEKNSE
As to the kind of experiment: Eurofins radioligand binding panel. Particulars: agonist radioligand.
Source text: as §1, §2, §3, §4

The target of a further series is T6, Adenosine A2A (Homo sapiens, UniProt P29274).
T6 construct: Eurofins
T6 sequence (P29274 whole entry): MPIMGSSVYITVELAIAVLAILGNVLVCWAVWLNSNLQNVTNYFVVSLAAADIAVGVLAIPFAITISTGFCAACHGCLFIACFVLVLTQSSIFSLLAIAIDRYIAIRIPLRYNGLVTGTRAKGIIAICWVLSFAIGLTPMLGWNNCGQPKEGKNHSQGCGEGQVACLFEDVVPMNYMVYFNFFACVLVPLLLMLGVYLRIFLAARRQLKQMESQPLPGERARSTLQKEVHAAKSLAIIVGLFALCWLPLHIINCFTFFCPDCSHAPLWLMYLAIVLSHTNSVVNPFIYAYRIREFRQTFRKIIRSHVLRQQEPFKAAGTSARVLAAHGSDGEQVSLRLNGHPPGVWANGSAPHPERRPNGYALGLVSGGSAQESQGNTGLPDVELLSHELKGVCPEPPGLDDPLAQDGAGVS
Briefly: Eurofins radioligand binding panel. The note with it: agonist radioligand.
Source text: as §1, §2, §3, §4

A further series deals with T7, CB1 (Homo sapiens, UniProt P21554).
T7 construct: Eurofins (panel run as a service)
T7 sequence (P21554 whole entry): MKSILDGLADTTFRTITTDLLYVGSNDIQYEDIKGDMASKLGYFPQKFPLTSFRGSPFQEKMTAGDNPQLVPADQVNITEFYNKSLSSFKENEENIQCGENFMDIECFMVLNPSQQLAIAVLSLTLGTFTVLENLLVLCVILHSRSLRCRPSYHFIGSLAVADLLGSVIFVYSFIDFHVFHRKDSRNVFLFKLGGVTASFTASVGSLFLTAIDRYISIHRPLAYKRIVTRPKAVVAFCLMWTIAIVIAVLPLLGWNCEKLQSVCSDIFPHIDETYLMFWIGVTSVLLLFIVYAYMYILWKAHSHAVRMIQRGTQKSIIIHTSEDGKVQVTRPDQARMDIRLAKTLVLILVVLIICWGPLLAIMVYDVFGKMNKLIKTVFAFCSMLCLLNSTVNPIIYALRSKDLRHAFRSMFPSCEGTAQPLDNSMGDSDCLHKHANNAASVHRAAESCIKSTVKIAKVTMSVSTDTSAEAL
Briefly: Eurofins radioligand binding panel. The note with it: agonist radioligand.
Source text: as §1, §2, §3, §4

For another series, the target named is T8, B2 (Homo sapiens, UniProt P30411).
T8 construct: Eurofins (panel run as a service)
T8 sequence (P30411 whole entry): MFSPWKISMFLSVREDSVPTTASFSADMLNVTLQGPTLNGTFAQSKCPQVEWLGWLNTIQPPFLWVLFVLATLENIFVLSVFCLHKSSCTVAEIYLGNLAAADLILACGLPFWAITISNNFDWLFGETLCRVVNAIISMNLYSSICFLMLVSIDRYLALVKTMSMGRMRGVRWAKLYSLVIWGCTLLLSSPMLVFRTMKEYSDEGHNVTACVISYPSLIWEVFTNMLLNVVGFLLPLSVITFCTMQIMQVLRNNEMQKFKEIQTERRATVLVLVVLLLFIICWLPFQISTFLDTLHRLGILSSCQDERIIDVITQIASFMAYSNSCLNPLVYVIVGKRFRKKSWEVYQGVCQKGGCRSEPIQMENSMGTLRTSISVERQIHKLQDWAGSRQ
As to the kind of experiment: Eurofins radioligand binding panel. Particulars: agonist radioligand.
Source text: as §1, §2, §3, §4

The target of a further series is T9, BZD (peripheral) (Rattus norvegicus, UniProt P16257).
T9 construct: Eurofins (panel run as a service)
As to the kind of experiment: Eurofins radioligand binding panel. The note with it: antagonist radioligand.
Source text: as §1, §2, §3, §4

The target in a further series is T10, AT1 (Homo sapiens, UniProt P30556).
T10 construct: Eurofins
T10 sequence (P30556 whole entry): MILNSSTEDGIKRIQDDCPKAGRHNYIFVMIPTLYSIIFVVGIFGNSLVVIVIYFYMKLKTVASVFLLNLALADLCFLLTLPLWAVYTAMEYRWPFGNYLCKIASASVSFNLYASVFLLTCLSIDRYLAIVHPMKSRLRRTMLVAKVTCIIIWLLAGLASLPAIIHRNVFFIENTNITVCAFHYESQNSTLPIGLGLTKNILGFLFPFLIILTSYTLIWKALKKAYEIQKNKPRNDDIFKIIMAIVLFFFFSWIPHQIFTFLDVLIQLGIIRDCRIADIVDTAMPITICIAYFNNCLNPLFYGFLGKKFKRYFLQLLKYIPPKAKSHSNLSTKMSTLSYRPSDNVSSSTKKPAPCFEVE
Briefly: Eurofins radioligand binding panel. The note with it: antagonist radioligand.
Source text: as §1, §2, §3, §4

The target in the next series is T11, CCK1 (CCKA) (Homo sapiens, UniProt P32238).
T11 construct: Eurofins (panel run as a service)
T11 sequence (P32238 whole entry): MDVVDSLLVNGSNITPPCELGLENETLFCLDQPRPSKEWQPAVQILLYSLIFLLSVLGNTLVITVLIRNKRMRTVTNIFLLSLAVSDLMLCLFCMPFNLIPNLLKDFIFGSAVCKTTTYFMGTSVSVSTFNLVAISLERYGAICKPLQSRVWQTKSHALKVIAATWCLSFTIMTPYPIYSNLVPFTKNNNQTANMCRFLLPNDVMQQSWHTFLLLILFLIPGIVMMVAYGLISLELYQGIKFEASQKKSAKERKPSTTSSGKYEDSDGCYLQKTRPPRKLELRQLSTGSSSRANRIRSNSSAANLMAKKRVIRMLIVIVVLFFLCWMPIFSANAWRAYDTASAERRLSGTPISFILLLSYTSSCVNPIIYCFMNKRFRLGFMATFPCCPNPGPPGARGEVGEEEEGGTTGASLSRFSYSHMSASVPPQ
Briefly: Eurofins radioligand binding panel. The note with it: agonist radioligand.
Source text: as §1, §2, §3, §4

Series [1] in a line: plasma exposure in satellite mice. The class given is in vivo. The note with it: male, C57BL/6JRj, mouse, sc. The source says: We have also employed here event-related potentials (ERPs) and auditory-evoked oscillations, which serve as critical translational biomarkers, to assess the impact of our investigational drug on sensory processing and cognitive functions, providing valuable data on its potential efficacy in treating disorders like schizophrenia. Detailed description of the methodology, setup specifications and recording procedure and analysis of the 40 Hz auditory steady-state response (ASSR) protocol can be found in Schuelert et al.[27] […] Reduced entrainment of gamma oscillation reflects abnormalities in basic sensory registration and processing but is also associated with impaired higher cognitive functions.[32] ASSR can also be reliably impaired preclinically by different NMDA receptor antagonists.[33],[34] […] Abnormalities associated with the filtering or “gating” of sensory information are among the most consistent findings in schizophrenia research.[35] N100 gating deficits also correlated with negative-cognitive deficits dimensions of schizophrenia[36] and can be modeled preclinically with NMDA receptor antagonists.[37]19d reversed N1 sensory gating deficit induced by MK-801 with the highest dose of 10 mg/kg (Figure 12B). Mean plasma exposures in satellite mice after subcutaneous administration of 19d at 0.8, 4, and 10 mg/kg were 187, 1207, and 2490 nM, respectively.
Male C57BL/6JRj mice (12–14 weeks old, 28–30 g, n = 13–19 per treatment arm) (Janvier Laboratories, Le Genest-Saint-Isle, France) were group housed prior to surgery (four animals per cage) and single housed after surgery under standard light-dark conditions (12 h/12 h, lights on 06:00–18:00) with food and tap water available ad libitum. C57BL/6JRj mice were used as they are well suited for neurophysiological cortical network investigations using EEG techniques (Schuelert et al., 2018). […]

A short description of another series: satellite PK for rat AHL. The format is in vivo. Particulars: 2.5-h end of study; for concentration at 2.5 h: brain, oral, read-out: free brain concentration. The method, then: Here, administration of 0.75 mg/kg IP of amphetamine induced a robust hyperlocomotive state in rats (>1200 beam breaks), which was dose-dependently reversed by oral administration of 19d. […] Considering the longer time point for exposure and the results, mGlu1 has sufficient target coverage and PK/PD is established for this paradigm.[24]

T1 sequence (P50052 whole entry): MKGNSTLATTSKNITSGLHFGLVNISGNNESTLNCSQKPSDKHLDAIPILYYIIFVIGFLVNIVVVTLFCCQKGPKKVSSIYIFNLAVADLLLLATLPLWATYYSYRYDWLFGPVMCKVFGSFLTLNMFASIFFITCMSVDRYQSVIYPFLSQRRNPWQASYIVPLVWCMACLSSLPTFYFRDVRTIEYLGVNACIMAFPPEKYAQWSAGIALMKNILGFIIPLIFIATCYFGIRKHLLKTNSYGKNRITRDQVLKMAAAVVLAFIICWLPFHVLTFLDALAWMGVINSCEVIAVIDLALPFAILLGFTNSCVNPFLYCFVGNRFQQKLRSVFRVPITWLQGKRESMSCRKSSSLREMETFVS
T3 sequence (P07550 whole entry): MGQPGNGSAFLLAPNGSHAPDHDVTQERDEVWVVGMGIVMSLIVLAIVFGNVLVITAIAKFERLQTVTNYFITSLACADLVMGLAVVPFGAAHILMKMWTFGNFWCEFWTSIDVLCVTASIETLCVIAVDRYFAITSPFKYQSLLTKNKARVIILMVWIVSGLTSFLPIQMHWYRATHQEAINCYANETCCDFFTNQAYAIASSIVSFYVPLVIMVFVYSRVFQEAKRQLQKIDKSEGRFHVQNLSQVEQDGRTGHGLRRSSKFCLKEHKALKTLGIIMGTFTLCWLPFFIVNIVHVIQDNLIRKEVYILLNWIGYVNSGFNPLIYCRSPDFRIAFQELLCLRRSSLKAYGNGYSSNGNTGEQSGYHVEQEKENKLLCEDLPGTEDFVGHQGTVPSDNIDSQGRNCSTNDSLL

What is called inhibition is the change of the read-out against control, counted positive when it falls. Broadly, the % Inhibition is the drop in the measured response relative to a control, in per cent. A higher % Inhibition goes with a response far below the control. As for `Cn1nc(-c2ccnn2C)cc1CNC(=O)c1cc(-c2ccco2)ccc1Cl` [Compound 19d, 2-Chloro-N-((1,2′-dimethyl-1H,2’H-[3,3′-bipyrazol]-5-yl)methyl)-5-(furan-2-yl)benzamide], the inhibition at 10 µM on AT2 is 2%; on CGRP, 1%; at Adrenergic beta 2 it was -1%; at Adrenergic beta 1 it was 1%; at Adenosine A3, 23%; on Adenosine A2A, -1%. Also, the inhibition at 10 µM on CB1 was 0%; at B2, 7%; at BZD (peripheral), 96%; on AT1, -1%; on CCK1 (CCKA), 7%. In addition, the “% Inhibition at 10 µM” value in the series with BZD (central) is 5%. Also, the concentration at 60 min in [1] (0.8 mg/kg s.c.) is 187 nM; in series [1] (4 mg/kg s.c.), 1210 nM; in series [1] (10 mg/kg s.c.) it was 2490 nM. The “free brain concentration over in vitro EC50” value in the series “satellite PK for rat AHL” (3 mg/kg) is about 0.6 fold; in “satellite PK for rat AHL” (10 mg/kg), about 1.2 fold. The values for the concentration at 2.5 h in “satellite PK for rat AHL” (3 mg/kg) and in the series “satellite PK for rat AHL” (10 mg/kg) were 32 nM and 67 nM, respectively.
